# Literature values in article PMC10721329, “Quisinostat is a brain-penetrant radiosensitizer in glioblastoma” (JCI Insight, 2023).
# Details: human, in vivo; cited from earlier work
structure (smiles),measurement,value
Cc1[nH]c2ccccc2c1CCNCc1ccc(/C=C/C(=O)NO)cc1 [panobinostat],hematologic toxicities compared with QST,far more common and severe (grade 3 and 4)
